The subject of data set [1] is false cleavers. The data set is described as follows: Test Example 5: herbicidal effect by foliage application, plastic box (Table 20, symbol Q). Type of data set: in vivo, false cleavers (Galium spurium). Particulars: for Q: false cleavers, herbicidal effect grade / herbicidal effect on false cleavers (Q): foliage application, three weeks after application. The essentials:
(§1)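 Foliar spray test: emulsion formulation diluted in water to a set application rate, sprayed onto 14-day-old plants raised in diluvial soil at 25° C to 30° C under glass. Both herbicidal effect and crop effect rated visually three weeks later.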

The subject of data set [2] is beet. Nature of the data set: Test Example 4: effect on crop by soil treatment (Table 19, symbol f). Type of data set: in vivo. Conditions: amount of applied herbicide 320 g/ha. The essentials: (§2)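 Step 1: sow seeds in sterilized diluvial soil, cover ~1.5 cm. Step 2: spray diluted emulsion onto soil surface at predetermined rate. Step 3: greenhouse, 25–30° C, three weeks. Step 4: grade effect on each plant by earlier criteria.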

For data set [3], the system named is transplanted rice. Nature of the data set: Test Example 1: effect on crop, application before weed generation under submerged conditions (Table 16, symbol a). Type of data set: in vivo. Particulars: amount of applied herbicide 320 g/ha. From the text:
[Test Example 1] Herbicidal Activity Test by Application before Weed Generation under Submerged Conditions After alluvial soil was placed into 1/10000 are of Wagner pot, water was poured and mixed to form a submerged condition having a water depth of 4 cm. Seeds of late watergrass, Japanese bulrush, and oval-leafed pondweed were sowed in a mixed manner in the aforementioned pot, and then 2.5 leaf stage rice plant seedlings were transplanted thereto. On the day of sowing seeds, the emulsion agent of the compound of the present invention prepared according to Formulation Example 2 was diluted with water so as to achieve a predetermined herbicide amount, and the diluted emulsion agent was applied to the surface of the water. The pot was placed in a greenhouse at 25° C. to 30° C. for growth of the plants. Three weeks after the herbicide application, the effect of the herbicide on each plant was evaluated according to the following criteria. Evaluation Criteria 5: Herbicidal rate of 90% or more (almost completely withered) 4: Herbicidal rate of 70% or more and less than 90% 3: Herbicidal rate of 40% or more and less than 70% 2: Herbicidal rate of 20% or more and less than 40% 1: Herbicidal rate of 5% or more and less than 20% 0: Herbicidal rate of 5% or less (almost no effect)

Data set [4] deals with soybean. Nature of the data set: Test Example 4: effect on crop by soil treatment (Table 19, symbol d). Type of data set: in vivo. Conditions: amount of applied herbicide 320 g/ha. The essentials: as §2
Data set [5] relates to corn. Nature of the data set: Test Example 4: effect on crop by soil treatment (Table 19, symbol c). Type of data set: in vivo. Particulars: amount of applied herbicide 320 g/ha. The essentials:
as §2

Data set [6] relates to soybean. The data set is described as follows: Test Example 5: effect on crop by foliage application, plastic box (Table 20, symbol d). Type of data set: in vivo. Particulars: 320 g/ha, three weeks after application. The gist of the method:
as §1

Data set [7] concerns corn. Nature of the data set: Test Example 5: effect on crop by foliage application, plastic box (Table 20, symbol c). Type of data set: in vivo. Conditions: 320 g/ha, three weeks after application. The gist of the method:
as §1

In data set [8] the test system is wheat. The data set is described as follows: Test Example 4: effect on crop by soil treatment (Table 19, symbol e). Type of data set: in vivo. Conditions: amount of applied herbicide 320 g/ha. The gist of the method:
as §2

Data set [9] has as its system directly sowed rice. Nature of the data set: Test Example 3: effect on crop by foliage application, Wagner pot (Table 18, symbol b). Type of data set: in vivo. Particulars: 320 g/ha. The gist of the method: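 Plants were sown in alluvial soil held under 0.1–0.5 cm standing water and grown 14 days in a greenhouse at 25–30 °C. An emulsifiable formulation, water-diluted to the set dose, was then sprayed onto the foliage, and effects were scored three weeks later using previously defined criteria.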

Data set [10] concerns rapeseed. Nature of the data set: Test Example 4: effect on crop by soil treatment (Table 19, symbol g). Type of data set: in vivo. Conditions: amount of applied herbicide 320 g/ha. The gist of the method: as §2
Data set [11] deals with rapeseed. The data set is described as follows: Test Example 5: effect on crop by foliage application, plastic box (Table 20, symbol g). Type of data set: in vivo. Particulars: 320 g/ha, three weeks after application. The essentials: as §1
Data set [12] relates to wheat. Nature of the data set: Test Example 5: effect on crop by foliage application, plastic box (Table 20, symbol e). Type of data set: in vivo. Particulars: 320 g/ha, three weeks after application. The essentials: as §1
The test system of data set [13] is beet. The data set is described as follows: Test Example 5: effect on crop by foliage application, plastic box (Table 20, symbol f). Type of data set: in vivo. Particulars: 320 g/ha, three weeks after application. The essentials:
as §1

As usually defined, the melting point is the temperature of the solid-liquid transition.

On to `CCCC(=O)Oc1c(C)nn(C)c(=O)c1-c1c(-c2ccccc2OC)sc2cc(F)ccc12` [3-004], for which the “Q: false cleavers, herbicidal effect grade” value in [1] (320 g/ha) is on record as 5 (Herbicidal rate of 90% or more (almost completely withered)).
Still for that read-out and setting: then `COc1ccc(-c2sc3cc(F)ccc3c2-c2c(O)c(C)nn(C)c2=O)cc1` [3-005], with 4 (Herbicidal rate of 70% or more and less than 90%); and `CCCC(=O)Oc1c(C)nn(C)c(=O)c1-c1c(-c2ccccc2OCC)sc2cc(F)ccc12` [3-007], with 5 (Herbicidal rate of 90% or more (almost completely withered)); and `CCCC(=O)Oc1c(C)nn(C)c(=O)c1-c1c(-c2ccccc2OCC)sc2cc(Cl)ccc12` [3-040], with 5 (Herbicidal rate of 90% or more (almost completely withered)).
With `CCCC(=O)Oc1c(C)nn(C)c(=O)c1-c1c(-c2ccccc2OC)sc2cc(C)ccc12` [3-050], the “Q: false cleavers, herbicidal effect grade” value in data set [1] (224 g/ha) is 4 (Herbicidal rate of 70% or more and less than 90%).
Turning to `CCCC(=O)Oc1c(C)nn(C)c(=O)c1-c1c(-c2ccccc2OCC)sc2cc(C)ccc12` [3-054], the “Q: false cleavers, herbicidal effect grade” value in data set [1] (304 g/ha) is given as 5 (Herbicidal rate of 90% or more (almost completely withered)).
For `COc1cc(F)ccc1-c1sc2cc(C)ccc2c1-c1c(O)c(C)nn(C)c1=O` [3-055], the “Q: false cleavers, herbicidal effect grade” value in data set [1] (320 g/ha) was 4 (Herbicidal rate of 70% or more and less than 90%).
With `CCCC(=O)Oc1c(C)nn(C)c(=O)c1-c1c(-c2ccccc2OCC)sc2cc(OC)ccc12` [3-071], the “Q: false cleavers, herbicidal effect grade” value in [1] (320 g/ha) is 5 (Herbicidal rate of 90% or more (almost completely withered)).
Turning to `CCOc1cc(F)ccc1-c1sc2cc(OC)ccc2c1-c1c(O)c(C)nn(C)c1=O` [3-078], in [1] (80 g/ha), the “Q: false cleavers, herbicidal effect grade” value is recorded as 5 (Herbicidal rate of 90% or more (almost completely withered)).
In the case of `CCCC(=O)Oc1c(C)nn(C)c(=O)c1-c1c(-c2ccc(F)cc2OCC)sc2cc(OC)ccc12` [3-079], the “Q: false cleavers, herbicidal effect grade” value in [1] (320 g/ha) is listed as 5 (Herbicidal rate of 90% or more (almost completely withered)).
With `COc1ccc2c(-c3c(O)c(C)nn(C)c3=O)c(-c3ccc4c(c3)OCCO4)sc2c1` [3-082], in [1] (320 g/ha), the “Q: false cleavers, herbicidal effect grade” value is reported as 5 (Herbicidal rate of 90% or more (almost completely withered)).
As for `CCCC(=O)Oc1c(C)nn(C)c(=O)c1-c1c(-c2ccc3c(c2)OCCO3)sc2cc(OC)ccc12` [3-083], the “Q: false cleavers, herbicidal effect grade” value in [1] (320 g/ha) was 5 (Herbicidal rate of 90% or more (almost completely withered)).
`CCOc1ccc2c(-c3c(O)c(C)nn(C)c3=O)c(-c3ccccc3OC)sc2c1` [3-089]: the “Q: false cleavers, herbicidal effect grade” value in data set [1] (320 g/ha) is on record as 5 (Herbicidal rate of 90% or more (almost completely withered)).
As to `CCOc1ccc2c(-c3c(O)c(C)nn(C)c3=O)c(-c3ccccc3OCC)sc2c1` [3-093], the “Q: false cleavers, herbicidal effect grade” value in data set [1] (320 g/ha) is recorded as 5 (Herbicidal rate of 90% or more (almost completely withered)).
In the case of `CCCC(=O)Oc1c(C)nn(C)c(=O)c1-c1c(-c2ccccc2OCC)sc2cc(OCC)ccc12` [3-094], in data set [1] (323 g/ha), the “Q: false cleavers, herbicidal effect grade” value is listed as 5 (Herbicidal rate of 90% or more (almost completely withered)).
For the compound `CCCC(=O)Oc1c(C)nn(C)c(=O)c1-c1c(-c2ccc(F)cc2OCC)sc2cc(OCC)ccc12` [3-096], in [1] (320 g/ha), the “Q: false cleavers, herbicidal effect grade” value is 5 (Herbicidal rate of 90% or more (almost completely withered)).
In the case of `CCCC(=O)Oc1c(C)nn(C)c(=O)c1-c1c(-c2ccccc2OC)sc2cc(F)c(F)cc12` [5-012], the “Herbicidal effect by foliage application, Q: false cleavers” value in data set [1] (amount of applied herbicide 320 g/ha, foliage application after 14-day growth, evaluated three weeks after application) is given as 5 (Herbicidal rate of 90% or more (almost completely withered)).
Turning to `CCOc1ccc2c(-c3c(O)c(C)nn(C)c3=O)c(-c3ccccc3OC)sc2c1Cl` [7-003], in data set [1] (320 g/ha), the “herbicidal effect on false cleavers (Q)” value is 5 (Herbicidal rate of 90% or more (almost completely withered)).
Regarding `CCCC(=O)Oc1c(C)nn(C)c(=O)c1-c1c(-c2ccc(F)cc2)oc2ccc(C)cc12` [9-005], the “herbicidal effect on false cleavers (Q)” value in data set [1] (390 g/ha) is 4 (Herbicidal rate of 70% or more and less than 90%).
On to `COc1ccc(-c2oc3ccc(C)cc3c2-c2c(O)c(C)nn(C)c2=O)cc1` [9-007], for which the “herbicidal effect on false cleavers (Q)” value in data set [1] (320 g/ha) is 1 (Herbicidal rate of 5% or more and less than 20%).
Consider `CCCC(=O)Oc1c(C)nn(C)c(=O)c1-c1c(-c2ccc(OC)cc2)oc2ccc(C)cc12` [9-008], for which, in data set [1] (320 g/ha), the “herbicidal effect on false cleavers (Q)” value was 0 (Herbicidal rate of 5% or less (almost no effect)).
Regarding `COc1ccc2c(-c3c(O)c(Cl)nn(C)c3=O)c(-c3ccccc3OC)sc2c1` [Compound No. 3-088, 6-chloro-5-hydroxy-4-(6-methoxy-2-(2-methoxyphenyl)benzo[b]thiophen-3-yl)-2-methylpyridazin-3(2H)-one], the melting point fell in the range of 209 to 211 °C. The “f: beet, effect on crop grade” value in [2] was 3 (Herbicidal rate of 40% or more and less than 70%). The “Effect on crop, a: transplanted rice” value in data set [3] is listed as 0 (Herbicidal rate of 5% or less (almost no effect)). Also, the “d: soybean, effect on crop grade” value in data set [4] is 1 (Herbicidal rate of 5% or more and less than 20%). For the same compound, the “c: corn, effect on crop grade” value in data set [5] was 0 (Herbicidal rate of 5% or less (almost no effect)). For the same compound, in [6], the “d: soybean, effect on crop grade” value is 3 (Herbicidal rate of 40% or more and less than 70%). The “c: corn, effect on crop grade” value in data set [7] is 0 (Herbicidal rate of 5% or less (almost no effect)). For the same compound, the “e: wheat, effect on crop grade” value in data set [8] is 0 (Herbicidal rate of 5% or less (almost no effect)). The “effect on directly sowed rice (b)” value in data set [9] was 0 (Herbicidal rate of 5% or less (almost no effect)). Moreover, the “g: rapeseed, effect on crop grade” value in [10] is 5 (Herbicidal rate of 90% or more (almost completely withered)). Besides, the “g: rapeseed, effect on crop grade” value in data set [11] is on record as 5 (Herbicidal rate of 90% or more (almost completely withered)). For the same compound, in [12], the “e: wheat, effect on crop grade” value is 0 (Herbicidal rate of 5% or less (almost no effect)). Further, the “f: beet, effect on crop grade” value in data set [13] was 5 (Herbicidal rate of 90% or more (almost completely withered)).
`COc1ccccc1-c1sc2cc(OCC(F)(F)F)ccc2c1-c1c(O)c(C)nn(C)c1=O` [Compound No. 3-116, 5-hydroxy-4-(2-(2-methoxyphenyl)-6-(2,2,2-trifluoroethoxy)benzo[b]thiophen-3-yl)-2,6-di methylpyridazin-3 (2H)-one] yielded a melting point of 216 to 218 °C. Moreover, the “f: beet, effect on crop grade” value in [2] is 5 (Herbicidal rate of 90% or more (almost completely withered)). The “Effect on crop, a: transplanted rice” value in data set [3] was 4 (Herbicidal rate of 70% or more and less than 90%). Besides, the “d: soybean, effect on crop grade” value in data set [4] is 1 (Herbicidal rate of 5% or more and less than 20%). The “c: corn, effect on crop grade” value in data set [5] is on record as 0 (Herbicidal rate of 5% or less (almost no effect)). Further, the “d: soybean, effect on crop grade” value in data set [6] was 5 (Herbicidal rate of 90% or more (almost completely withered)). Moreover, the “c: corn, effect on crop grade” value in data set [7] is on record as 0 (Herbicidal rate of 5% or less (almost no effect)). For the same compound, the “e: wheat, effect on crop grade” value in [8] is 1 (Herbicidal rate of 5% or more and less than 20%). Moreover, the “effect on directly sowed rice (b)” value in [9] was 5 (Herbicidal rate of 90% or more (almost completely withered)). In data set [10], the “g: rapeseed, effect on crop grade” value is reported as 5 (Herbicidal rate of 90% or more (almost completely withered)). Moreover, in data set [11], the “g: rapeseed, effect on crop grade” value is 5 (Herbicidal rate of 90% or more (almost completely withered)). Further, in [12], the “e: wheat, effect on crop grade” value is 3 (Herbicidal rate of 40% or more and less than 70%). Moreover, the “f: beet, effect on crop grade” value in data set [13] is 5 (Herbicidal rate of 90% or more (almost completely withered)).

These data come from patent US20230085307A1, “PYRIDAZINONE COMPOUND AND HERBICIDE” (NISSAN CHEMICAL CORPORATION, priority 2019, published 2023).
